Key:
PI3K = assay: Kinase assay of PI3Kα, PI3Kβ, PI3Kδ, PI3Kγ and mutant PI3Kα (H1047R and E542K), PI3-kinase HTRF assay; format: biochemical; details: Figure S1C
Protocol: The kinase activity of PI3Kα, PI3Kβ, PI3Kδ and PI3Kγ, mutant PI3Kα (H1047R and E542K) mammalian target of rapamycin (mTOR) and DNA-PK was measured as described previously. The protein kinase assays depicted in Figure S1 in Additional file 1 and Table S2 in Additional file 2 were performed at ProQinase, GmbH [18].
Supplementary file 13058_2014_482_MOESM1_ESM.jpeg: Additional file 1: Figure S1.: Comparative analysis of ETP-45658 and PI-103. (A) Chemical structure of ETP-45658 and PI-103. (B) Physiochemical properties of ETP-45658 and PI-103, including molecular polar surface area (PSA), partition coefficient (LogP), ACD clogD and solubility at two different pH values including Lipinsky’s Rule of Five (RoF) analysis. (C) Inhibitory activity against PI3K and mTOR. The kinase activity of PI3K was measured by using the commercial PI3-kinase HTRF™ assay mTOR activity by LanthaScreen™. (D) ETP-45658 and PI-103 screen against a panel of 24 kinases. The value shown indicates kinase inhibition (percentage +/− standard deviation) at 10 μM. (E) Migration of MDA-MB231 cells in a two compartment Boyden chamber for 72 hours in the presence of DMSO, ETP-45658 or PI-103 (N = 3). (JPEG 662 KB)

[1] = system: serine 253-phosphorylated FOXO3a; assay: Immunoblot of FOXO3a phosphorylation in MCF-7 or U2OS cells; format: cell-based, human; details: breast or osteosarcoma cancer cells; six hours post treatment

SMILES	inhibitory activity against PI3K (PI3K)	serine 253-phosphorylated FOXO3a [1]
Cn1ncc2c(N3CCOCC3)nc(-c3cccc(O)c3)nc21 [ETP-45658]	potently inhibited	almost complete absence
Oc1cccc(-c2nc(N3CCOCC3)c3oc4ncccc4c3n2)c1 [PI-103]	slightly more effective	almost complete absence

Reference: paper PMC4303209, “A novel phosphatidylinositol 3-kinase (PI3K) inhibitor directs a potent FOXO-dependent, p53-independent cell cycle arrest phenotype characterized by the differential induction of a subset of FOXO-regulated genes” (Breast Cancer Research : BCR, 2014)
